According to patent EP4647433A1, “SHP2 INHIBITOR AND USES THEREOF” (Kanaph Therapeutics Inc., priority 2023, dated 2024):
Where two headings read alike, the source gives them in different places.

Tests used:
[1] = target: T1, SHP2 (Homo sapiens, UniProt Q06124); assay: Phosphatase assay (PTPase assay, DiFMUP substrate); type: biochemical
T1 construct: SHP2 (full length, diluted to 100 pM final concentration in reaction buffer, BPS bioscience, US); purchased BPS bioscience, US
T1 sequence (Q06124 1-593): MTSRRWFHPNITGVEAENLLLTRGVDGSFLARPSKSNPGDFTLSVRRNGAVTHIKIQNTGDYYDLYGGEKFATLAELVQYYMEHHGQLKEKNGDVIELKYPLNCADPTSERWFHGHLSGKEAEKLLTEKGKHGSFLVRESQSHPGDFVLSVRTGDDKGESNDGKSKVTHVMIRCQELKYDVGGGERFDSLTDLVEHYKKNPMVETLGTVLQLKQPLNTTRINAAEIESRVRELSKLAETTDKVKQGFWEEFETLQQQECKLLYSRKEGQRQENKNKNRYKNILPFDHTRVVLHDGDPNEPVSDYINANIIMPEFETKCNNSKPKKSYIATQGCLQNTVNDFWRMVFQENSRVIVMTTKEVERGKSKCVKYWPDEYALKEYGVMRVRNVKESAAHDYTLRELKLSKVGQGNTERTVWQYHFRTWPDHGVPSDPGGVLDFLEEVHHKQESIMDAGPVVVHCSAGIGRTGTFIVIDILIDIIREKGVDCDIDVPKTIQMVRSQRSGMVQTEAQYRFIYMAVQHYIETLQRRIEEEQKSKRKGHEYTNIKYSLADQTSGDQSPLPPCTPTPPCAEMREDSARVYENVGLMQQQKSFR
Protocol: IC50 values were measured using 6,8-difluoro-4-methylumbelliferyl phosphate (DiFMUP) as a substrate. The reaction was performed in a 384-well plate, and fluorescence measurement values were obtained using an EnVision plate reader from PerkinElmer.
SHP2 (full length, diluted to 100 pM final concentration in reaction buffer, BPS bioscience, US) was incubated with the SHP2 activating peptide in reaction buffer (60 mM HEPES (pH 7.2), 75 mM NaCl, 75 mM KCl, 1 mM EDTA, 5 mM DTT, 0.05% P-20) for 30 minutes to activate SHP2. After activation, DMSO [1% (V/V) or the compound according to the Examples (concentration ranging from 0.6 nM to 10 µM)] was added. As a positive control group, the selective SHP2 inhibitors SHP099 (6-(4-amino-4-methylpiperidin-1-yl)-3-(2,3-dichlorophenyl)pyrazin-2-amine, FOCUS bioscience, Austrailia; concentration ranging from 0.6 nM to 10 µM) and TNO155 ((3S,4S)-8-(6-amino-5-((2-amino-3-chloropyridin-4-yl)thio)pyrazin-2-yl)-3-methyl-2-oxa-8-azaspiro[4.5]decan-4-amine, Chemietek, US; concentration ranging from 0.6 nM to 10 µM) were used. [drawing 184]
DiFMUP (80 µM) was added to the reaction and incubated for a total of 2 hours to allow for the reaction to proceed. Thereafter, fluorescence (340 nm excitation, 450 nm emission) values were measured. IC50 values were obtained using Graphad's Prism from the measured values depending on the concentration.
In the phosphatase assay (PTPase assay), when an IC50 value was 100 nM or more, + was indicated, when an IC50 value was 3 nM or more and less than 100 nM, ++ was indicated, and when an IC50 value was less than 3 nM, +++ was indicated.

[2] = system: H358 cells; assay: Cell viability (3D spheroid, 3D CellTiter-Glo); type: cell-based; conditions: Homo sapiens, NCI-H358, 120 h; H358 spheroids, 5 days treatment
Protocol: Human non-small cell lung cancer cell line H358 cells were purchased from the Korean Cell Line Bank. Cancer cell lines were cultured in the recommended RPMI-1640 medium supplemented with 10% fetal bovine serum (FBS) and 1% penicillin/streptomycin. Monolayer-cultured cancer cell lines were detached by treatment with Trypsin/EDTA, and 100 µL of cell suspension containing 4 x 10^3 cells was each dispensed into SPL3D™ Cell Floater, 96-well round plate, through cell line counting. After culturing for 72 hours to form spheroid, the cells were individually treated with the compounds according to the Examples, which had been serially diluted (minimum 1.5 nM, maximum 10 µM in concentration), and then cultured in a cell incubator for 5 days. To analyze cell viability, the cells were treated with 50 uL of 3D CellTiter-Glo, stirred for 5 minutes at 500 rpm in a plate shaker from Thermo Fisher Scientific, and incubated for 25 minutes at room temperature. Then, the luminescent values were measured using a Varioskan equipment from Thermo Fisher Scientific. IC50 values were obtained using GraphPad's Prism from the measured values depending on the concentration.
In the cell viability assay, when an IC50 value was 50 nM or more, + was indicated, when an IC50 value was 10 nM or more and less than 50 nM, ++ was indicated, and when an IC50 value was less than 10 nM, +++ was indicated.

[3] = full length SHP2 100 pM activated with SHP2 activating peptide, DiFMUP 80 µM, 2 hours, read-out: PTPase assay (IC50)

Row | Structure (SMILES) | IC50 [2] [nM] | IC50 [1, 3] [nM] | IC50 [1] [nM]
1 | C[C@@H]1OCC2(CCN(c3cnc(Sc4ccc5ncn(CCC#N)c(=O)c5c4Cl)cn3)CC2)[C@@H]1N [Example 24, 3-(6-((5-((3S,4S)-4-amino-3-methyl-2-oxa-8-azaspiro[4.5]decan-8: yl)pyrazin-2-yl)thio)-5-chloro-4-oxoquinazolin-3(4H)-yl)propanenitrile] | 10 to 50 | – | < 3
2 | C[C@@H]1OCC2(CCN(c3cnc(Sc4ccc5ncn(CC(C)(F)F)c(=O)c5c4Cl)cn3)CC2)[C@@H]1N [Example 21, 6-((5-((3S,4S)-4-amino-3-methyl-2-oxa-8-azaspiro[4.5]decan-8-yl)pyrazin-2-yl)thio)-5-chloro-3-(2,2-difluoropropyl)quinazolin-4(3H)-one] | – | < 3 | –
3 | COCCn1cnc2ccc(Sc3cnc(N4CCC5(CC4)Oc4ccccc4[C@H]5N)cn3)c(Cl)c2c1=O [Example 22, (R)-6-((5-(3-amino-3H-spiro[benzofuran-2,4'-piperidin]-1'-yl)pyrazin-2-yl)thio)-5-chloro-3-(2-methoxyethyl)quinazolin-4(3H)-one] | – | 3 to 100 | –
4 | COC1(Cn2cnc3ccc(Sc4cnc(N5CCC6(CC5)CO[C@@H](C)[C@H]6N)cn4)c(Cl)c3c2=O)CC1 [Example 20, 6-((5-((3S,4S)-4-amino-3-methyl-2-oxa-8-azaspiro[4.5]decan-8-yl)pyrazin-2-yl)thio)-5-chloro-3-((1-methoxycyclopropyl)methyl)quinazolin-4(3H)-one] | – | 3 to 100 | –
5 | CC(C)(C)Cn1cnc2ccc(Sc3cnc(N4CCC5(CC4)Cc4ncsc4[C@H]5N)cn3)c(Cl)c2c1=O [Example 5, (S)-6-((5-(6-amino-4,6-dihydrospiro[cyclopenta[d]thiazole-5,4'-piperidin]-1'-yl)pyrazin-2-yl)thio)-5-chloro-3-neopentylquinazolin-4(3H)-one] | – | < 3 | –
6 | CC(C)n1ccc2ccc(Sc3cnc(N4CCC5(CC4)Cc4ncsc4[C@H]5N)cn3)c(Cl)c2c1=O [Example 40, (S)-7-((5-(6-amino-4,6-dihydrospiro[cyclopenta[d]thiazole-5,4'-piperidin]-1'-yl)pyrazin-2-yl)thio)-8-chloro-2-isopropylisoquinolin-1(2H)-one] | < 10 | 3 to 100 | –
7 | CC1(CN)CCN(c2cnc(Sc3ccc4ncn(Cc5ccccc5)c(=O)c4c3Cl)c(N)n2)CC1 [Example 13, 6-((3-amino-5-(4-(aminomethyl)-4-methylpiperidine-1-yl)pyrazin-2-yl)thio)-3-benzyl-5-chloroquinazolin-4(3H)-one] | – | 3 to 100 | –
8 | Cn1cnc2ccc(Sc3cnc(N4CCC5(CC4)Cc4ncsc4[C@H]5N)cn3)cc2c1=O [Example 17, (S)-6-((5-(6-amino-4,6-dihydrospiro[cyclopenta[d]thiazole-5,4'-piperidin]-1'-yl)pyrazin-2-yl)thio)-3-methylquinazolin-4(3H)-one] | < 10 | < 3 | –

Further lines, with some results ahead:

Row | IC50 [2] [nM] | IC50 [1, 3] [nM] | Structure (SMILES) | IC50 [1] [nM]
9 | < 10 | < 3 | COC(C)Cn1ccc2ccc(Sc3cnc(N4CCC5(CC4)Cc4ccccc4[C@H]5N)cn3)c(Cl)c2c1=O (stereo partly drawn) [Example 42, 7-((5-((S)-1-amino-1,3-dihydrospiro[indene-2,4'-piperidin]-1'-yl)pyrazin-2-yl)thio)-8-chloro-2-(2-methoxypropyl)isoquinolin-1(2H)-one] | –
10 | 10 to 50 | < 3 | CC(C)n1ccc2ccc(Sc3cnc(N4CCC5(CC4)CO[C@@H](C)[C@H]5N)cn3)c(Cl)c2c1=O [Example 46, 7-((5-((3S,4S)-4-amino-3-methyl-2-oxa-8-azaspiro[4.5]decan-8-yl)pyrazin-2-yl)thio)-8-chloro-2-isopropylisoquinolin-1(2H)-one] | –
11 | < 10 | – | N[C@@H]1c2ccccc2CC12CCN(c1cnc(Sc3ccc4ncn(-c5ccccc5)c(=O)c4c3Cl)cn1)CC2 [Example 30, (S)-6-((5-(1-amino-1,3-dihydrospiro[indene-2,4'-piperidin]-1'-yl)pyrazin-2-yl)thio)-5-chloro-3-phenylquinazolin-4(3H)-one] | –
12 | < 10 | – | N[C@@H]1c2scnc2CC12CCN(c1cnc(Sc3ccc4ncn(-c5ccccc5)c(=O)c4c3Cl)cn1)CC2 [Example 38, (S)-6-((5-(6-amino-4,6-dihydrospiro[cyclopenta[d]thiazole-5,4'-piperidin]-1'-yl)pyrazin-2-yl)thio)-5-chloro-3-phenylquinazolin-4(3H)-one] | –
13 | 10 to 50 | – | COC(C)(C)Cn1cnc2ccc(Sc3cnc(N4CCC5(CC4)Cc4scnc4[C@H]5N)cn3)c(Cl)c2c1=O [Example 33, (S)-6-((5-(4-amino-4,6-dihydrospiro[cyclopenta[d]thiazole-5,4'-piperidin]-1'-yl)pyrazin-2-yl)thio)-5-chloro-3-(2-methoxy-2-methylpropyl)quinazolin-4(3H)-one] | –
14 | – | < 3 | COC(F)(F)Cn1cnc2ccc(Sc3cnc(N4CCC5(CC4)CO[C@@H](C)[C@H]5N)cn3)c(Cl)c2c1=O [Example 19, 6-((5-((3S,4S)-4-amino-3-methyl-2-oxa-8-azaspiro[4.5]decan-8-yl)pyrazin-2-yl)thio)-5-chloro-3-(2,2-difluoro-2-methoxyethyl)quinazolin-4(3H)-one] | –
15 | < 10 | – | Cn1ccc2ccc(Sc3cnc(N4CCC5(CC4)Cc4ncsc4[C@H]5N)cn3)c(Cl)c2c1=O [Example 16, (S)-7-((5-(6-amino-4,6-dihydrospiro[cyclopenta[d]thiazole-5,4'-pineridin]-1'-yl)pyrazin-2-yl)thio)-8-chloro-2-methylisoquinolin-1(2H)-one] | –
16 | < 10 | < 3 | CC(C)(O)Cn1cnc2ccc(Sc3ncc(N4CCC5(CC4)Cc4ccccc4[C@H]5N)nc3N)c(Cl)c2c1=O [Example 11, (S)-6-((3-amino-5-(1-amino-1,3-dihydrospiro[indene-2,4'-piperidin]-1'-yl)pyrazin-2-yl)thio)-5-chloro-3-(2-hydroxy-2-methylpropyl)quinazolin-4(3H)-one] | –
17 | < 10 | < 3 | Cn1cnc2ccc(Sc3cnc(N4CCC5(CC4)Cc4ncccc4[C@H]5N)cn3)c(Cl)c2c1=O [Example 6, (S)-6-((5-(5-amino-5,7-dihydrospiro[cyclopenta[b]pyridine-6,4'-piperidin]-1'-yl)pyrazin-2-yl)thio)-5-chloro-3-methylquinazolin-4(3H)-one] | –
18 | – | 3 to 100 | C[C@@H]1OCC2(CCN(c3cnc(Sc4ccc5ncn(Cc6ccccc6)c(=O)c5c4Cl)c(N)n3)CC2)[C@@H]1N [Example 12, 6-((3-amino-5-((3S,4S)-4-amino-3-methyl-2-oxa-8-azaspiro[4.5]decan-8-yl)pyrazin-2-yl)thio)-3-benzyl-5-chloroquinazolin-4(3H)-one] | –
19 | < 10 | < 3 | COC(C)Cn1ccc2ccc(Sc3cnc(N4CCC5(CC4)CO[C@@H](C)[C@H]5N)cn3)c(Cl)c2c1=O (stereo partly drawn) [Example 14, 7-((5-((3S,4S)-4-amino-3-methyl-2-oxa-8-azaspiro[4.5]decan-8-yl)pyrazin-2-yl)thio)-8-chloro-2-(2-methoxypropyl)isoquinolin-1(2H)-one] | –
